Experimental findings from patent US11427553B2, “Dihydrooxadiazinones” (Bayer Aktiengesellschaft, priority 2017, dated 2022) are described below.

The test system of assay [1] is TE4 cells. Put plainly: Assay 2 cell proliferation measurement, TE4. The format is cell-based. Particulars: Homo sapiens, Oesophagus squamous cell carcinoma, read-out: Anti-proliferation IC50 [nM] TE4. As for the experimental part: (§1) Cell Proliferation Measurement
(§2) The antiproliferative activity of the compounds of the general formula (I) was examined in vitro in human cancer cells. For this purpose, 500 cells, including HeLa cells, A2058 cells, DU145 cells, HMCB cells, IGR37 cells, NCIH1734 cells, OSRC2 cells, or 750 cells, including CAL51 cells, COL0741 cells, DBTRG05MG cells, DKMG cells, G292CLONEA141B1 cells, GB1 cells, HEL cells, HEL9217 cells, JHUEM1 cells, L3.3 cells, LI7 cells, TE4 cells, or 1000 cells, including 8505C cells, HUT78 cells, NCIH1563 cells, NCIH2122 cells, NCIH2172 cells, RVH421 cells, SKMEL3 cells, or 1500 cells, including C32 cells, HS578T cells, JHOM1 cells, NCIH196 cells, OVKATE cells, were plated in 384-well plates with appropriate growth medium and incubated at 37° C. overnight. […] After 72 h, the cells were treated with 20 μl/well of 50% CTG solution in PBS (Promega Cell Titer Glo (catalogue #G755B and G756B)) and incubated at room temperature for 10 min, and luminescence was measured by means of a VICTOR V (Perkin Elmer), in order to determine cell viability at the end of treatment. The percentage effect on cell growth and the IC50 derived therefrom were determined for each test substance using the values from untreated wells (=percent viability). The IC50 values were calculated using a 4-parameter fit.

For assay [2], the system named is L3.3 cells. In words: Assay 2 cell proliferation measurement, L3.3. The format is cell-based. The conditions noted are these: Homo sapiens, Pancreas NS, read-out: Anti-proliferation IC50 [nM] L3.3. On the procedure:
as §1
(§3) The antiproliferative activity of the compounds of the general formula (I) was examined in vitro in human cancer cells. For this purpose, 500 cells, including HeLa cells, A2058 cells, DU145 cells, HMCB cells, IGR37 cells, NCIH1734 cells, OSRC2 cells, or 750 cells, including CAL51 cells, COL0741 cells, DBTRG05MG cells, DKMG cells, G292CLONEA141B1 cells, GB1 cells, HEL cells, HEL9217 cells, JHUEM1 cells, L3.3 cells, LI7 cells, TE4 cells, or 1000 cells, including 8505C cells, HUT78 cells, NCIH1563 cells, NCIH2122 cells, NCIH2172 cells, RVH421 cells, SKMEL3 cells, or 1500 cells, including C32 cells, HS578T cells, JHOM1 cells, NCIH196 cells, OVKATE cells, were plated in 384-well plates with appropriate growth medium and incubated at 37° C. overnight. After 24 h, the cells on the test plate were treated with the compounds of the general formula (I) as and incubated at 37° C. for 72 h. The compounds were added to the cells by means of an HP D300 digital dispenser in a 10 (or more)-step dilution series. As control, the cells were treated with vehicle (DMSO at 0.3% final concentration). After 72 h, the cells were treated with 20 μl/well of 50% CTG solution in PBS (Promega Cell Titer Glo (catalogue #G755B and G756B)) and incubated at room temperature for 10 min, and luminescence was measured by means of a VICTOR V (Perkin Elmer), in order to determine cell viability at the end of treatment. The percentage effect on cell growth and the IC50 derived therefrom were determined for each test substance using the values from untreated wells (=percent viability). The IC50 values were calculated using a 4-parameter fit.

The test system of assay [3] is NCIH1563 cells. In words: Assay 2 cell proliferation measurement, NCIH1563. The format is cell-based. Particulars: Homo sapiens, NCI-H1563, Lung adenocarcinoma, read-out: Anti-proliferation IC50 [nM] NCIH1563. On the procedure: as §1, §2
Assay [4] concerns A2058 cells. Put plainly: Assay 2 cell proliferation measurement, A2058. The conditions noted are these: Homo sapiens, Melanoma, read-out: Anti-proliferation IC50 [nM] A2058. The format is cell-based. On the procedure: as §1, §3
The test system of assay [5] is HMCB cells. In words: Assay 1 cell proliferation measurement, HMCB. The format is cell-based. Particulars: Homo sapiens, Melanoma, read-out: Anti-proliferation IC50 [nM] HMCB.
Assay [6] deals with PA-1 cells. In words: Assay 1 cell proliferation measurement, PA-1. The format is cell-based. The conditions noted are these: Homo sapiens, Ovarian teratocarcinoma, read-out: Anti-proliferation IC50 [nM] PA-1.
Assay [7] relates to IGR-1 cells. Put plainly: Assay 1 cell proliferation measurement, IGR-1. Particulars: Homo sapiens, Melanoma, read-out: Anti-proliferation IC50 [nM] IGR-1. The format is cell-based.
The target of assay [8] is human full length PDE3B (Homo sapiens (Human), UniProt Q13370). In words: Assay 5 PDE3B enzyme inhibition (3H-cAMP SPA). The format is biochemical. Particulars: Sf9 cell extract. In outline:
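Sf9 cell extract expressing human full-length PDE3B, diluted for linear kinetics (<70% substrate use), in 50 mM Tris/HCl pH 7.5, 8.3 mM MgCl2, 1.7 mM EDTA. [8-3H]cAMP substrate, 60 min at room temperature; stopped with yttrium SPA beads, scintillation counting. IC50 from sigmoidal activity vs log concentration curves.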

The subject of assay [9] is DK-MG cells. In words: Assay 1 cell proliferation measurement, DK-MG. The format is cell-based. The conditions noted are these: Homo sapiens; Glioblastoma; read-out: Anti-proliferation IC50 [nM] DK-MG.
The test system of assay [10] is xenograft models of human tumors. In words: Assay 3 in vivo xenotransplantation models of human cancer (overall statement). Particulars: monotherapy treatment, p.o., mice. From the text: (§4) In Vivo Xenotransplantation Models
(§5) The anti-tumor activities of Compounds of examples 135 and 146 were examined in murine xenotransplantation models of human cancer. For this purpose, mice were implanted subcutaneously with tumor cells. At a mean tumor size of 20-40 mm^2 animals were randomized into treatment and control groups (at least n=10 animals/group) and treatment started with vehicle only or respective Compound (formulation: 90% PEG400/10% Ethanol; application route: per os (“p.o.”), orally). The oral application volume was 10 ml/kg. In the case of twice daily treatments, the time interval between two applications per day was 6-7 h. The tumor size and the body weight were determined at least weekly. The tumor area was detected by means of an electronic caliper [length (mm)×width (mm)]. The experiment was ended when the study reached the pre-determined ethical endpoint based on German and European animal welfare regulations. In vivo anti-tumor efficacy is presented as T/C ratio at study end (Treatment/Control; mean tumor weight of treatment group/mean tumor weight of control group) in Table 8. A compound having a T/C below 0.5 is defined as active (i.e., effective). Statistical analysis was assessed using SigmaStat software. A one-way analysis of variance was performed and differences to the control were compared by a pair-wise comparison procedure (Dunn's method).

In assay [11] the test system is PA-1 xenograft (Ovarian teratocarcinoma). Put plainly: Assay 3 in vivo xenotransplantation model, PA-1. Particulars: PA-1 ovarian teratocarcinoma xenograft, mice.
Excerpt: as §4, §5

The test system of assay [12] is DBTRG-05-MG cells. In words: Assay 1 cell proliferation measurement, DBTRG-05-MG. The format is cell-based. Particulars: Homo sapiens, Glioblastoma, read-out: Anti-proliferation IC50 [nM] DBTRG-05-MG.
The test system of assay [13] is HEL92.1.7 xenograft (AML). Put plainly: Assay 3 in vivo xenotransplantation model, HEL92.1.7. Particulars: HEL92.1.7 AML xenograft, mice, 40 mg/kg 2QD p.o.; * P < 0.05 vs control.
Excerpt: as §4, §5

Chain of human full length PDE3B (Q13370 whole entry): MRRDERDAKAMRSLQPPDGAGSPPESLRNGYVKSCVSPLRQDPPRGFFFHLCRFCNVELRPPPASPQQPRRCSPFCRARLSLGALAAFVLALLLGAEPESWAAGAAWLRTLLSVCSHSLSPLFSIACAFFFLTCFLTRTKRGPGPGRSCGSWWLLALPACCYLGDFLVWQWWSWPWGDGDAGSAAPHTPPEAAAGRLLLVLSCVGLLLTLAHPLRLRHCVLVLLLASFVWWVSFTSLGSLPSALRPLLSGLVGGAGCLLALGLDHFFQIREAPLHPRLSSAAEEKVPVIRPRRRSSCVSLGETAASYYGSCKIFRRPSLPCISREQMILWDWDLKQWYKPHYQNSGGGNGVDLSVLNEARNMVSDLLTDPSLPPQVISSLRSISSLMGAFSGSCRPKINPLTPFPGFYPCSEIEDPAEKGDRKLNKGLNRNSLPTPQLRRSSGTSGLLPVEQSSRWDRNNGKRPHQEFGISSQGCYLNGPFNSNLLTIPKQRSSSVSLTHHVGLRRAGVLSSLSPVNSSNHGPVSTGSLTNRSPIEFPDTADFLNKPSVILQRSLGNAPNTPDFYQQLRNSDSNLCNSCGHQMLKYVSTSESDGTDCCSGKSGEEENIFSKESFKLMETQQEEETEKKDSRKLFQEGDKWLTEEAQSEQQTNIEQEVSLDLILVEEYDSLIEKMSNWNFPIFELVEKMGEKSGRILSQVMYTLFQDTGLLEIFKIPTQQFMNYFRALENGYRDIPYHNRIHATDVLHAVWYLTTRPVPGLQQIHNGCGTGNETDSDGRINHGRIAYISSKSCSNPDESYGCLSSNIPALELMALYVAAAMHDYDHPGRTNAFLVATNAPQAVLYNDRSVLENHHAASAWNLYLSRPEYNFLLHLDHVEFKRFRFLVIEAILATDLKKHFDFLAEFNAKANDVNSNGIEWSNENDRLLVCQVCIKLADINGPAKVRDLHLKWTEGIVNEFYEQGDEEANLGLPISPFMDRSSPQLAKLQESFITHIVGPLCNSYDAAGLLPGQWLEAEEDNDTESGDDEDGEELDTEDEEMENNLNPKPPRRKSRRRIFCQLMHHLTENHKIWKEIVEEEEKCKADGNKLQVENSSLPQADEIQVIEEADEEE

As to `C[C@@H]1OC(=O)NN=C1c1ccc(-n2ccc(C(F)(F)F)n2)c(C(F)(F)F)c1` [Example 265, (6S)-6-Methyl-5-{3-(trifluoromethyl)-4-[3-(trifluoromethyl)-1H-pyrazol-1-yl]phenyl}-3,6-dihydro-2H-1,3,4-oxadiazin-2-one], the IC50 is 41 nM in assay [1], 312 nM in assay [2], 46 nM in assay [3] and 96 nM in assay [4].

Turning to `O=C1NN=C(c2ccc(-c3ccc(F)cc3)c(C(F)(F)F)c2)CO1` [Example 3, 5-[4′-Fluoro-2-(trifluoromethyl)biphenyl-4-yl]-3,6-dihydro-2H-1,3,4-oxadiazin-2-one], the IC50 turned out to be 26 nM in assay [5]; 22 nM in [6]; 99 nM in [7]; 0.197 µM in assay [8]; 21 nM in assay [9].

As to `C[C@@H]1OC(=O)NN=C1c1ccc(-c2ccc(F)cc2)c(C(F)(F)F)c1` [Example 135, (6S)-5-[4′-Fluoro-2-(trifluoromethyl)biphenyl-4-yl]-6-methyl-3,6-dihydro-2H-1,3,4-oxadiazin-2-one], the IC50 in assay [1] was 15 nM; in [2], 82 nM; in assay [5], 13 nM; in assay [3] it was 18 nM; in assay [7], > 100 nM; in assay [8], 0.05 µM. Moreover, in assay [4], the IC50 amounted to 38 nM. The “anti-tumor efficacy in xenograft models of human tumors” value in assay [10] was “potent anti-tumor efficacy”. In assay [11] (5 mg/kg 2QD p.o.), the “T/C (mean final tumor weight treatment / control)” value stood at 0.63.

In the case of `O=C1NN=C(c2ccc(-c3ccc(Cl)cc3)c(C(F)(F)F)c2)CO1` [Example 31, 5-[4′-Chloro-2-(trifluoromethyl)biphenyl-4-yl]-3,6-dihydro-2H-1,3,4-oxadiazin-2-one], the IC50 was found to be 56 nM in assay [12], 39 nM in assay [6], 0.603 µM in [8] and 39 nM in assay [9].

In the case of `O=C1NN=C(c2ccc(-c3cnn(C(F)F)c3)c(C(F)(F)F)c2)CO1` [Example 146, 5-{4-[1-(Difluoromethyl)-1H-pyrazol-4-yl]-3-(trifluoromethyl)phenyl}-3,6-dihydro-2H-1,3,4-oxadiazin-2-one], the IC50 amounted to 14 nM in [12]; 15 nM in assay [2]; 12 nM in assay [6]; 0.08 µM in assay [8]; 25 nM in assay [4]; 12 nM in assay [9]. For the same molecule, the “T/C (mean final tumor weight treatment / control)” value in assay [13] is given as 0.08*; in assay [11] (20 mg/kg 2QD p.o., * P < 0.05 vs control), 0.49*. Also, in assay [10], the “anti-tumor efficacy in xenograft models of human tumors” value was “potent anti-tumor efficacy”.
